Experimental data reported in ChEMBL document CHEMBL5154837, “Discovery, optimization and evaluation of 1-(indolin-1-yl)ethan-1-ones as novel selective TRIM24/BRPF1 bromodomain inhibitors” (Eur J Med Chem, 2022).
Calls of active or inactive are those of the source. The calls are words filed in the database; no cut-off is given here.

Legend:
[1] = Apparent permeability of the compound across basolateral to apical side in human Caco-2 cells at 10 uM incubated for 120 mins assessed as drug recovery and measured by LC-MS/MS analysis
[2] = Apparent permeability of the compound across apical to basolateral side in human Caco-2 cells at 10 uM incubated for 120 mins assessed as drug recovery and measured by LC-MS/MS analysis
[3] = Apparent permeability of the compound across apical to basolateral side in human Caco-2 cells at 10 uM incubated for 120 mins and measured by LC-MS/MS analysis
[4] = Apparent permeability of the compound across basolateral to apical side in human Caco-2 cells at 10 uM incubated for 120 mins and measured by LC-MS/MS analysis
CWR22R [5] = experiment: Downregulation of TMPRSS2 mRNA expression in human 22Rv1 cells at 5 uM measured by RT-PCR analysis; assay type: functional, cell-based
[6] = Toxicity in […] mouse xenografted with human 22Rv1 cells assessed as body weight loss at 50 mg/kg, ip administered once daily for 21 days; assay type: organism-based, CWR22R; conditions: in vivo, 504 h, time 21 day
LNCaP [7] = experiment: Suppression of PSA gene expression in human LNCaP cells assessed as mRNA level at 0.4 to 10 uM measured by luciferase gene reporter assay; assay type: functional, cell-based; conditions: dose 0.4-10 µM
CWR22R [8] = experiment: Downregulation of PSA mRNA expression in human 22Rv1 cells at 5 uM measured by RT-PCR analysis; assay type: functional, cell-based
LNCaP C4-2B [9] = experiment: Inhibition of clonogenicity in human LNCaP C4-2B cells assessed as reduction in colony formation at 1 uM measured by crystal violet staining based analysis; assay type: functional
CWR22R [10] = experiment: Antitumor activity against human 22Rv1 cells xenografted in […] mouse assessed as tumor growth inhibition at 50 mg/kg, ip administered once daily for 21 days; assay type: functional; conditions: 22Rv1, 504 h, time 21 day, read-out: TGI
[11] = target: T1, Transcription intermediary factor 1-alpha (Homo sapiens, UniProt O15164); experiment: Inhibition of TRIM24 (unknown origin) measured alphascreen assay
T1 sequence (O15164 whole entry): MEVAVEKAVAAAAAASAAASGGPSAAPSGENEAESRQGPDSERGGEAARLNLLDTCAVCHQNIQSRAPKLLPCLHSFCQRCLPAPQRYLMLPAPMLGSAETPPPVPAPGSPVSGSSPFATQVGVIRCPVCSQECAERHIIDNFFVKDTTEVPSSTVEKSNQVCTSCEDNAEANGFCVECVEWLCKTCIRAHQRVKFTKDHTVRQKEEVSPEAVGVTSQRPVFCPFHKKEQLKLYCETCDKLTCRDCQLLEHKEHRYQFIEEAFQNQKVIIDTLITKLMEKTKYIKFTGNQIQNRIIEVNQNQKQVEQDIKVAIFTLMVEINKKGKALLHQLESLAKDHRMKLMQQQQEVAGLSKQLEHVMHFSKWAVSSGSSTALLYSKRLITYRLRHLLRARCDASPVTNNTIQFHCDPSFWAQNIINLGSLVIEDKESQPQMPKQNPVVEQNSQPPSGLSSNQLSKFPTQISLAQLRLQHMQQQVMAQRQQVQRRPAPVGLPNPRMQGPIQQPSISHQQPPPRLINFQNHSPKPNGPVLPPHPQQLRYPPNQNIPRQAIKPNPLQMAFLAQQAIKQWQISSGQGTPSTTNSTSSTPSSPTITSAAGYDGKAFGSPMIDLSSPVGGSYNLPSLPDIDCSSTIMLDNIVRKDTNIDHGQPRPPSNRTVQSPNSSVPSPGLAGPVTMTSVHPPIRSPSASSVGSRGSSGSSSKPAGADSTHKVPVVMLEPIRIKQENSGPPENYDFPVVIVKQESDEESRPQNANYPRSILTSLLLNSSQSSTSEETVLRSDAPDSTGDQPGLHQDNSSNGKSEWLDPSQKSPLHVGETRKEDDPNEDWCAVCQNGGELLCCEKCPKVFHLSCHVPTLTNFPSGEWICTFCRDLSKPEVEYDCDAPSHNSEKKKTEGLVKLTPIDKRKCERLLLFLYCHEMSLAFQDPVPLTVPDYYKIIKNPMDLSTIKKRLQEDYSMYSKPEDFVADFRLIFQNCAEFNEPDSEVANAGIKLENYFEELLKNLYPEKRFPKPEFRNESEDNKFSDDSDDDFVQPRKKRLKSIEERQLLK

CWR22R [12] = experiment: Downregulation of C-MYC mRNA expression in human 22Rv1 cells at 5 uM measured by RT-PCR analysis; assay type: functional, cell-based
CWR22R [13] = experiment: Inhibition of clonogenicity in human 22Rv1 cells assessed as reduction in colony formation at 1 uM measured by crystal violet staining based analysis; assay type: functional
LNCaP C4-2B [14] = experiment: Antiproliferative activity against human LNCaP C4-2B cells measured after 96 hrs by Cell Titer-Glo assay; assay type: functional, cell-based
CWR22R [15] = experiment: Downregulation of KLK2 mRNA expression in human 22Rv1 cells at 5 uM measured by RT-PCR analysis; assay type: functional, cell-based
CWR22R [16] = experiment: Downregulation of AR-V7 mRNA expression in human 22Rv1 cells at 5 uM measured by RT-PCR analysis; assay type: functional, cell-based
CWR22R [17] = experiment: Downregulation of full-length AR mRNA expression in human 22Rv1 cells at 5 uM measured by RT-PCR analysis; assay type: functional, cell-based
LNCaP [18] = experiment: Antiproliferative activity against human LNCaP cells measured after 96 hrs by Cell Titer-Glo assay; assay type: functional, cell-based
Peregrin = target: T2, Peregrin (Homo sapiens, UniProt P55201); experiment: Inhibition of BRPF1 (unknown origin) measured alphascreen assay
T2 sequence (P55201 whole entry): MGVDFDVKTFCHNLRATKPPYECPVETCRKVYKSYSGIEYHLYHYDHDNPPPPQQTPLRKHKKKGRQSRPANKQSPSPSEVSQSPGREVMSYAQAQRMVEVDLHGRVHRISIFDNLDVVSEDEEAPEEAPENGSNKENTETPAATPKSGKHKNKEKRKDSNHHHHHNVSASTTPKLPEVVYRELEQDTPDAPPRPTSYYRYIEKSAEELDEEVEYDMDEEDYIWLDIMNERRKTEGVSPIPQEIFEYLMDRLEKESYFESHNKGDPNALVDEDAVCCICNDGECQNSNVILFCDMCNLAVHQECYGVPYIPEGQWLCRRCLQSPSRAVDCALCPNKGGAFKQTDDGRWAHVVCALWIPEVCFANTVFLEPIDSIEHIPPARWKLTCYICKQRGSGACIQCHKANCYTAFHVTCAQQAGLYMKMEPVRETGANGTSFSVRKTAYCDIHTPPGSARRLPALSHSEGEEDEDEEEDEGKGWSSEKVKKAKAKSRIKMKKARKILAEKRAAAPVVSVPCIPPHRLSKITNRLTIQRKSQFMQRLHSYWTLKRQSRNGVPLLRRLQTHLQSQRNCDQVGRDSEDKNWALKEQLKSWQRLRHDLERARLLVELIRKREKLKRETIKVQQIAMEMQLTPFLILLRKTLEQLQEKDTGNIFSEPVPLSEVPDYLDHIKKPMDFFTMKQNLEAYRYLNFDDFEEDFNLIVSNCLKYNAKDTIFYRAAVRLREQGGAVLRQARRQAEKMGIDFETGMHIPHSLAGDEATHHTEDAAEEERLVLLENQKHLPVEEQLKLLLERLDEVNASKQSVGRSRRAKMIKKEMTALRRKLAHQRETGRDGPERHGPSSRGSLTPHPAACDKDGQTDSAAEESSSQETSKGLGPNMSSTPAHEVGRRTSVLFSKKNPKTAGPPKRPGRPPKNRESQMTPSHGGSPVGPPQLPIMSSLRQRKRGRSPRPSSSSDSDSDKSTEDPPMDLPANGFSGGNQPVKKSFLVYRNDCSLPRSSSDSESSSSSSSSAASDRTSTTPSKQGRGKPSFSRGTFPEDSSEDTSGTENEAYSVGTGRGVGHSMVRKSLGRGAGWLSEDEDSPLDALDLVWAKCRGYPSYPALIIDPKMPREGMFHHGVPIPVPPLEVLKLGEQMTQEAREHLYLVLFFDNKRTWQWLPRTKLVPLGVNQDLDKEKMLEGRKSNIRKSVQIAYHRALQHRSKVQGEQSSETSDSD

CWR22R [19] = experiment: Antiproliferative activity against human 22Rv1 cells measured after 96 hrs by Cell Titer-Glo assay; assay type: functional, cell-based; conditions: 22Rv1, 96 h
[20] = Efflux ratio of apparent permeability from basolateral to apical side over apical to basolateral side in human Caco-2 cells at 10 uM incubated for 120 mins and measured by LC-MS/MS analysis

Which results are given for `CC(C)NCC(O)COc1cccc2ccccc12` (stereo not given) [PROPRANOLOL]?
recovery at 2 h, 10 µM [1]: 99.2%; recovery at 2 h, 10 µM [2]: 78.5%; Papp A→B at 2 h, 10 µM [3]: 22.1 ×10⁻⁶ cm/s; Papp B→A at 2 h, 10 µM [4]: 20.9 ×10⁻⁶ cm/s

Which Activity (CWR22R [5]) does the source give for `COc1ccc(C2CC2)cc1S(=O)(=O)Nc1ccc2c(c1)CCN2C(C)=O` here?
The Activity was “Active”.

And the Activity [6]?
The Activity was “Non-Toxic”.

And the Activity (LNCaP [7])?
The Activity was “Active”.

And the Activity (CWR22R [8])?
The Activity was “Active”.

And the inhibition at 1 µM (LNCaP C4-2B [9])?
Its inhibition at 1 µM is < 5%.

And the inhibition in vivo at 50 mg/kg (CWR22R [10])?
Its inhibition in vivo at 50 mg/kg is 53%.

And the IC50 [11]?
Its IC50 is 0.98 µM.

What about the Activity (CWR22R [12]) of the same compound?
Its Activity is “Active”.

What about the inhibition at 1 µM (CWR22R [13]) of the same compound?
The inhibition at 1 µM was < 5%.

What about the IC50 (LNCaP C4-2B [14]) of the same compound?
The IC50 was 0.78 µM.

What about the Activity (CWR22R [15]) of the same compound?
The Activity was “Active”.

What about the Activity (CWR22R [16]) of the same compound?
The Activity was “Active”.

What about the Activity (CWR22R [17]) of the same compound?
Its Activity is “Active”.

And the IC50 (LNCaP [18])?
Its IC50 is 1.07 µM.

What about the IC50 (Peregrin) of the same compound?
Its IC50 is 1.16 µM.

What about the IC50 (CWR22R [19]) of the same compound?
The IC50 was 0.82 µM.

With `CCCOc1cc(OCCCCN(C)C)cc(Oc2cc3c(cc2NS(=O)(=O)c2ccc(OC)c(OC)c2)n(C)c(=O)n3C)c1` as the compound, how does the IC50 (LNCaP C4-2B [14]) read?
The IC50 was 13.6 µM.

What about the IC50 (LNCaP [18]) of the same compound?
The IC50 was 12.2 µM.

What about the IC50 (CWR22R [19]) of the same compound?
The IC50 was 10.8 µM.

For `C[C@H]1O[C@@H](O[C@H]2[C@@H](O)C[C@H](O[C@H]3[C@@H](O)C[C@H](O[C@H]4CC[C@@]5(C)[C@H](CC[C@@H]6[C@@H]5C[C@@H](O)[C@]5(C)[C@@H](C7=CC(=O)OC7)CC[C@]65O)C4)O[C@@H]3C)O[C@@H]2C)C[C@H](O)[C@@H]1O` [DIGOXIN], which recovery at 2 h, 10 µM [1] is on record?
Its recovery at 2 h, 10 µM is 98.6%.

What about the recovery at 2 h, 10 µM [2] of the same compound?
The recovery at 2 h, 10 µM was 88.8%.

What about the efflux ratio at 2 h, 10 µM [20] of the same compound?
Its efflux ratio at 2 h, 10 µM is 9.69.

What about the Papp B→A at 2 h, 10 µM [4] of the same compound?
The Papp B→A at 2 h, 10 µM was 8.97 ×10⁻⁶ cm/s.

Which recovery at 2 h, 10 µM [1] does the source give for `CC(C)NCC(O)COc1ccc(CC(N)=O)cc1` (stereo not given) [ATENOLOL] here?
Its recovery at 2 h, 10 µM is 92.3%.

And the recovery at 2 h, 10 µM [2]?
The recovery at 2 h, 10 µM was 92.7%.

With `COc1cccc(NS(=O)(=O)c2ccc3c(c2)CCN3C(C)=O)c1` as the compound, how does the IC50 [11] read?
Its IC50 is 38.4 µM.
